Source: patent US20200352914A1, “METHODS OF TREATING HYPERTENSION WITH ACTIVATORS OF TIE-2” (Aerpio Pharmaceuticals, Inc., priority 2019, published 2020)

Test system: eNOS
Experiment: eNOS and Akt phosphorylation in human endothelial cells (immunoprecipitation, immunoblotting)
Format: cell-based
Method: Confluent monolayers of human endothelial cells expressing FLAG-tagged eNOS cultured overnight in MCDB131 containing 0.1% BSA and then incubated with increasing concentrations of Compound 2 (0.3-30 μmol/L) or solvent (DMSO) for 30 minutes. In separate experiments, human endothelial cells were cultured overnight in MCDB131 containing 0.1% BSA and then incubated treated with Compound 2 (30 μmol/L) or solvent for 30 minutes and then stimulated with Yoda1 (1 μmol/L) or solvent for an additional 30 minutes. To inhibit Src, cells were pre-incubated with PP2 (1 μmol/L) for 30 min before incubation with Compound 2 and stimulation with Yoda1. After two washes with cold PBS, cells were collected with the aid of cell scrapers in a lysis buffer containing Tris/HCl pH 7.5 (50 mmol/L), NaCl (150 mmol/L), Triton X-100 (1%), NaPPi (10 mmol/L), NaF (20 mmol/L), orthovanadate (2 mmol/L), okadaic acid (10 nmol/L), β-glycerophosphate (50 mmol/L), phenylmethylsulfonyl fluoride (230 μmol/L), and EDTA-free protease inhibitors mix. The cell mixture was incubated for 30 minutes at 4° C. with vortexing, followed by centrifugation at 13000 rpm for 10 minutes at 4° C. To assess the eNOS-VE-PTP interaction, the following modifications were applied: 1) cells were incubated with the lysis buffer for one hour on an end-over-end rocker at 4° C. and gently vortexed until no cell clumps were observed; 2) lysates were not centrifuged after lysis. FLAG-tagged eNOS was immunoprecipitated using 30 μL of packed Anti-FLAG M2 Affinity Gel per mg protein lysate overnight. The recovered immunoprecipitates were washed three times with the lysis buffer, eluted by boiling samples for 10 minutes in SDS sample buffer, and then analyzed by SDS-PAGE and immunoblotting.
Protein samples were separated by SDS-PAGE and then transferred to […] nitrocellulose membranes. Membranes were incubated overnight with primary antibodies against phospho-Tyr81 eNOS, phospho-Ser1177 eNOS, phospho-Ser633 eNOS, eNOS, phospho-Ser473 Akt, Akt, ABL1, VE-PTP, GAPDH, β-actin, followed by species-specific secondary antibodies anti-IgG conjugated with HRP. Proteins were visualized by enhanced chemiluminescence.

[1] = 30 μmol/L 30 minutes, then Yoda1 1 μmol/L 30 min

Structure (SMILES): CCc1nc([C@H](Cc2ccc(NS(=O)(=O)O)cc2)NC(=O)[C@H](Cc2ccccc2)NC(=O)OC)cs1 [Compound 2]
- Yoda1-induced phosphorylation of Akt on Ser473 and eNOS on Ser1177 [1]: also increased
- Yoda1-induced phosphorylation of eNOS on Ser633 [1]: not affected
- Yoda1-induced phosphorylation of eNOS on Tyr81 [1]: markedly enhanced
- eNOS phosphorylation on Tyr81 and Ser1177 (0.3-30 μmol/L, 30 minutes): led to phosphorylation of eNOS on Tyr81 and Ser1177
